From patent US9718771B2, “Aniline derivative, pharmaceutical composition containing same, and use thereof” (Kissei Pharmaceutical Co., Ltd., priority 2014, dated 2017) come the findings set out here.

human S1P1 (EDG-1), sequence (P21453 whole entry): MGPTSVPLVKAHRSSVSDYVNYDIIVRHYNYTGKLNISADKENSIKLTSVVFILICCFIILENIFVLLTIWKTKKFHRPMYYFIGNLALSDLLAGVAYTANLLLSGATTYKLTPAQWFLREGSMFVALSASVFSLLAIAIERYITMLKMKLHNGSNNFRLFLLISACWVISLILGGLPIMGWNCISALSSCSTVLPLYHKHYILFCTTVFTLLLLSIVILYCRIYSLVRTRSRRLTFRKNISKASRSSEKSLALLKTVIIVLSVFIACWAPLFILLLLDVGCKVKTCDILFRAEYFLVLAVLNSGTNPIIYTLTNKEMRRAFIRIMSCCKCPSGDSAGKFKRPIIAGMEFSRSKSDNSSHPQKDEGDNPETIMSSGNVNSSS

This experiment has as its target human S1P1 (EDG-1) (Homo sapiens (Human), UniProt P21453). Kind of experiment: Confirmation test of antagonistic activity for human S1P1 receptor (35S-GTP binding, cell membranes). The format is biochemical. Particulars: inhibition of 35S-GTP binding induced by S1P1 receptor selective agonist; HEK293 membranes expressing human S1P1. Here is the method:
Confirmation Test of Antagonistic Activity for Human S1P1 Receptor
Test compounds were tested by reduction of functional binding activity of ^35S-GTP (guanosine 5′-O-[gamma-thio] triphosphate, PerkinElmer) to G protein using cell membranes expressing human S1P1 (EDG-1). S1P1-pcDNA3.1/V5-His-Topo vector was prepared by inserting cDNA (NM_001400) encoding human S1P1 into the expression vector, pcDNA3.1/V5-His-Topo (registered trademark) (Invitrogen). Next, the above S1P1-pcDNA3.1 vector was transfected into HEK293 cells by Lipofectamine2000 (registered trademark) (Invitrogen). The transfected cells were incubated with D-MEM liquid medium each containing 10% FBS (Fetal bovine serum), 100 U/mL penicillin, 100 μg/mL streptomycin and 1 mg/mL Geneticin (registered trademark) (Invitrogen) in an incubator under the condition of 5% CO2 at 37° C. and Geneticin (registered mark)-resistant cell line stably expressing S1P1 were obtained. The obtained stably S1P1-expressing cells were incubated with D-MEM liquid medium each containing 10% FBS and 0.5 mg/mL Geneticin (registered trademark) in an incubator under the condition of 5% CO2 at 37° C. The cells grown to confluence were harvested by a buffer solution containing 50 mM Tris, 2 mM EDTA (ethylmediaminetetraacetic acid) and 125 mM sodium chloride, and centrifuged at 1880×g, 4° C. for 10 minutes. After a supernatant was removed, a cell pellet was resuspended by the same buffer solution. For making cell membranes fragile, this cell suspension was frozen at −80° C. and then thawed. The cells were centrifuged at 1880×g, 4° C. for 10 minutes, and a supernatant was removed. The cell pellet was suspended by adding the same buffer solution and a fracture solution (10 mM sodium bicarbonate and 5 mM EDTA, pH 7.5) at a ratio of 2:1. The cells were fractured by subjecting the cell suspension to ultrasonication, and a cell membrane fraction was isolated by centrifugation at 1880×g, 4° C. for 10 minutes and ultracentrifugation of the supernatant at 80000×g, 4° C. for 30 minutes. A pellet of the cell membrane fraction was suspended by the fracture solution containing protease inhibitor cocktail (Roche) and stored at −80° C. until use. A protein concentration of the cell membrane fraction was determined using BCA Protein Assay Kit (Pierce) in accordance with an attached protocol.
Inhibitory activity evaluation was performed by multi-screen (registered trademark) HTS 96-well plate (Millipore) using the cell membrane fraction stably expressing S1P1 obtained by the above operation. 25 μL of assay solution (50 mM Tris, 100 mM sodium chloride, 5 mM magnesium chloride, 1 mM EDTA, 1 mM DTT (dithiothreitol), 10 μM GDP (guanosine diphosphate) and 0.5% BSA (bovine serum albumin), pH 7.4), 25 μL of test compounds solution diluted by assay solution and 25 μL of the membrane fraction (0.2 μg protein/μL) were added to each well, and the mixture was gently shaken at room temperature: for 30 minutes. Then, 25 μL of ^35S-GTP, and 25 μL of 50 nM S1P1 receptor selective agonist (1-[4-(4-phenyl-5-trifluoromethylthiophen-2-ylmethoxy)benzyl]azetidine-3-carboxylic acid, “J. Med. Chem.”, 2004, vol. 47, pp. 6662-6665, compound 18) were added to each well, respectively, and it was reacted at room temperature for 60 minutes. After the reaction, a reaction solution of each well was suction-filtered. After suction filtration, ice-colded wash solution (50 mM Tris, 100 mM sodium chloride, […] and 1 mM EDTA, pH 7.4) was added to each well, and moreover filters were washed by suction filtration. This wash procedure was performed three times. A bottom of the plate containing the filters was dried at 60° C. After drying, 30 μL of MicroScinti-40 (PerkinElmer) was added to each well, and the radioactivity adsorbed on the filter was determined by TopCount NXT (registered trademark) (PerkinElmer) after shaking for 30 minutes at room temperature. […]
`Cc1cc(NC(C)c2ccc(C)c(CN3CC(C(=O)O)C3)c2)ccc1Cl` (stereo not drawn) [Comparative Example 1, 1-{5-[1-(4-Chloro-3-methylphenylamino)ethyl]-2-methylbenzyl}azetidine-3-carboxylic acid, reference compound] returned an IC50 of 441 nM.
The value for `Cc1cc(N(C)Cc2cccc(CN3CC(C(=O)O)C3)c2)ccc1Cl` [Compound 1-2] was 7.6 nM.
The value for `CCN(Cc1ccc(C)c(CN2CC(C(=O)O)C2)c1)c1ccc(Cl)c(C)c1` [Compound 2-1, 1-(5-{[(4-Chloro-3-methylphenyl)(ethyl)amino]methyl}-2-methylbenzyl)azetidine-3-carboxylic acid] was 5.3 nM; that for `Cc1cc(N(C)Cc2ccc(C)c(CN3CC(C(=O)O)C3)c2)ccc1Cl` [Compound 2-2] was 6.7 nM; that for `Cc1cc(N(Cc2ccc(C)c(CN3CC(C(=O)O)C3)c2)C(C)C)ccc1Cl` [Compound 2-3] was 2.8 nM.
To `CCN(Cc1cccc(CN2CC(C(=O)O)C2)c1C)c1ccc(Cl)c(C)c1` [Compound 2-4] belongs 3.9 nM.
Compound `Cc1cc(CN2CC(C(=O)O)C2)c2c(c1)C(N(C)c1ccc(Cl)c(C)c1)CC2` (stereo not drawn) [Compound 2-9] came in with an IC50 of 22.2 nM.
The value for `Cc1ccc2c(c1CN1CC(C(=O)O)C1)CCC2N(C)c1ccc(Cl)c(C(F)(F)F)c1` (stereo not drawn) [Compound 2-10, 1-{1-[(4-Chloro-3-trifluoromethylphenyl)(methyl)amino]-5-methylindan-4-ylmethyl}azetidine-3-carboxylic acid] was 2.5 nM; that for `CCN(Cc1ccc(C)c(CN2CC(C(=O)O)C2)c1C)c1ccc(Cl)c(C)c1` [Compound 2-11] was 1.1 nM.
`CCC(c1cccc(CN2CC(C(=O)O)C2)c1)N(CC)c1ccc(Cl)c(C)c1` (stereo not drawn) [Compound 2-12]: the IC50 is 6.8 nM.
The value for `Cc1cc(N(C)C(C)c2ccc(C)c(CN3CC(C(=O)O)C3)c2)ccc1Cl` (stereo not drawn) [Compound 2-13] was 21.5 nM; that for `CCCN(c1ccc(Cl)c(C)c1)C(C)c1ccc(C)c(CN2CC(C(=O)O)C2)c1` (stereo not drawn) [Compound 2-14, 1-(5-{1-[(4-Chloro-3-methylphenyl)(propyl)amino]ethyl}-2-methylbenzyl)-azetidine-3-carboxylic acid] was 1.7 nM; that for `CCN(c1ccc(Cl)c(C)c1)C1CCc2c1ccc(F)c2CN1CC(C(=O)O)C1` (stereo not drawn) [Compound 2-15, 1-{1-[(4-Chloro-3-methylphenyl)(ethyl)amino]-5-fluoroindan-4-ylmethyl}-azetidine-3-carboxylic acid] was 2.5 nM.
In the case of `CCN(c1ccc(Cl)c(C)c1)C1CCc2c(CN3CC(C(=O)O)C3)cc(F)cc21` (stereo not drawn) [Compound 2-16], the IC50 worked out at 3.3 nM.
`Cc1cc(N(C)C2CCc3c(CN4CC(C(=O)O)C4)cccc32)ccc1Cl` (stereo not drawn) [Compound 2-17] returned an IC50 of 27.3 nM.
The compound `CCN(c1ccc(Cl)c(C)c1)C1CCc2c1ccc(OC)c2CN1CC(C(=O)O)C1` (stereo not drawn) [Compound 2-18] had an IC50 of 4.7 nM.
Compound `CCN(c1ccc(Cl)c(C)c1)C1CCc2c1ccc(C)c2CN1CC(C(=O)O)C1` (stereo not drawn) [Compound 2-21, 1-{1-[(4-Chloro-3-methylphenyl)(ethyl)amino]-5-methylindan-4-ylmethyl}-azetidine-3-carboxylic acid] yielded an IC50 of 1.9 nM.
To `CCN(c1ccc(Cl)c(C)c1)C1CCc2c(CN3CC(C(=O)O)C3)cc(C)cc21` (stereo not drawn) [Compound 2-22] belongs 5 nM.
The value for `CCN(c1ccc(Cl)c(C(F)(F)F)c1)C1CCc2c(CN3CC(C(=O)O)C3)cccc21` (stereo not drawn) [Compound 2-24] was 3.7 nM; that for `Cc1ccc(C(C)N(C)c2ccc(Cl)c(C(F)(F)F)c2)cc1CN1CC(C(=O)O)C1` (stereo not drawn) [Compound 2-25, 1-(5-{1-[(4-Chloro-3-trifluommethylphenyl)(methyl)amino]ethyl}-2-methylbenzyl)azetidine-3-carboxylic acid] was 6.7 nM; that for `CCN(c1ccc(Cl)c(C)c1)C(C)c1cc(Cl)cc(CN2CC(C(=O)O)C2)c1` (stereo not drawn) [Compound 2-29] was 1.2 nM.
The value for `CCN(c1ccc(Cl)c(C)c1)C(C)c1ccc(OC)c(CN2CC(C(=O)O)C2)c1` (stereo not drawn) [Compound 2-30] was 6.9 nM.
The compound `CCN(c1ccc(Cl)c(C)c1)C(C)c1ccc(F)c(CN2CC(C(=O)O)C2)c1` (stereo not drawn) [Compound 2-31, 1-(5-{1-[(4-Chloro-3-methylphenyl)(ethyl)amino]ethyl}-2-fluorobenzyl)-azetidine-3-carboxylic acid] gave an IC50 of 5.7 nM.
In turn, `CCN(c1ccc(Cl)c(C)c1)C(C)c1ccc(Cl)c(CN2CC(C(=O)O)C2)c1` (stereo not drawn) [Compound 2-32, 1-(2-Chloro-5-{1-[(4-chloro-3-methylphenyl)(ethyl)amino]ethyl}benzyl)-azetidine-3-carboxylic acid] showed an IC50 of 1.1 nM.
The value for `CC(c1ccc(Cl)c(CN2CC(C(=O)O)C2)c1)N(C)c1ccc(Cl)c(C(F)(F)F)c1` (stereo not drawn) [Compound 2-33, 1-(2-Chloro-5-{1-[(4-chloro-3-trifluoromethylphenyl)(methyl)amino]-ethyl}benzyl)azetidine-3-carboxylic acid] was 7.8 nM.
The value for `CCN(c1ccc(Cl)c(C(F)(F)F)c1)C(C)c1ccc(Cl)c(CN2CC(C(=O)O)C2)c1` (stereo not drawn) [Compound 2-34, 1-(2-Chloro-5-{1-[(4-chloro-3-trifluoromethylphenyl)(ethyl)amino]ethyl}-benzyl)azetidine-3-carboxylic acid] was 1.5 nM; that for `Cc1ccc(C(C)N(CCO)c2ccc(Cl)c(C(F)(F)F)c2)cc1CN1CC(C(=O)O)C1` (stereo not drawn) [Compound 2-37] was 8.6 nM.
To `Cc1ccc2c(c1CN1CC(C(=O)O)C1)CCC2N(CCO)c1ccc(Cl)c(C(F)(F)F)c1` (stereo not drawn) [Compound 2-39] belongs 3.4 nM.
With `CCN(c1ccc(Cl)c(C(F)(F)F)c1)C(C)c1ccc(C(F)(F)F)c(CN2CC(C(=O)O)C2)c1` (stereo not drawn) [Compound 2-41, 1-(5-{1-[(4-Chloro-3-trifluoromethylphenyl)(ethyl)amino]ethyl}-2-trifluoromethylbenzyl)azetidine-3-carboxylic acid], the IC50 is 1.9 nM.
With `CCN(c1ccc(Cl)c(C)c1)C(C)c1ccc(C(F)(F)F)c(CN2CC(C(=O)O)C2)c1` (stereo not drawn) [Compound 2-43, 1-(5-{1-[(4-Chloro-3-methylphenyl)(ethyl)amino]ethyl}-2-trifluoromethylbenzyl)azetidine-3-carboxylic acid], the IC50 came out at 3.5 nM.
The value for `Cc1ccc(C(C)N(C)c2ccc(C#N)c(C(F)(F)F)c2)cc1CN1CC(C(=O)O)C1` (stereo not drawn) [Compound 2-44] was 9 nM.
The value for `CCC(c1ccc(C)c(CN2CC(C(=O)O)C2)c1)N(CC)c1ccc(Cl)c(C(F)(F)F)c1` (stereo not drawn) [Compound 2-45, 1-(5-{1-[(4-Chloro-3-trifluoromethylphenyl)(ethyl)amino]propyl}-2-methylbenzyl)azetidine-3-carboxylic acid] was 0.8 nM.
Take `CCC(c1ccc(C)c(CN2CC(C(=O)O)C2)c1)N(CC)c1ccc(Cl)c(C)c1` (stereo not drawn) [Compound 2-46, 1-(5-{1-[(4-Chloro-3-methylphenyl)(ethyl)amino]propyl}-2-methylbenzyl)-azetidine-3-carboxylic acid]: the IC50 came out at 1.9 nM.
To `CCN(c1ccc(Cl)cc1)C(C)c1ccc(C)c(CN2CC(C(=O)O)C2)c1` (stereo not drawn) [Compound 2-47] belongs 1.8 nM.
To `CCN(c1cccc(Cl)c1)C(C)c1ccc(C)c(CN2CC(C(=O)O)C2)c1` (stereo not drawn) [Compound 2-49] belongs 0.9 nM.
The value for `CCN(Cc1cccc(CN2CC(C(=O)O)C2)c1)c1ccc(Cl)c(C)c1` [Compound 3-1, 1-(3-{[(4-Chloro-3-methylphenyl)(ethyl)amino]methyl}benzyl)azetidine-3-carboxylic acid] was 8.9 nM.

In general, IC50 refers to the concentration that gives 50% inhibition.
